Reference: patent publication US20190314345A1, “CALCINEURIN INHIBITOR AND NON-STEROIDAL ANTI-INFLAMMATORY DRUG TO REDUCE RISK OF POST-IMAGING PANCREATITIS” (UNIVERSITY OF PITTSBURGH - OF THE COMMONWEALTH SYSTEM OF …, priority 2016, published 2019)
Blank lines part the entries; values can stand above or below the compound they belong to.

Tests used:
[1] = system: NF-κB; assay: NF-κB-luciferase activity assay in AR42J cells; format: cell-based; conditions: for effect on RC-induced NF-κB luciferase levels: U73122 5 μM, 2-APB 100 μM, BAPTA 64 μM
Protocol: AR42J cells were differentiated towards an acinar phenotype by administering dexamethasone (100 nM) for 48-72 hr^17. AR42J cells were infected with Ad-NF-κB luciferase 16 h prior to stimulation using a previously described method^12. Following a wash with DMEM/F12 medium, acinar cells were evenly distributed in a 48-well plate and incubated for 30 min at 37° C. They were incubated with RC at varying concentrations and times. NF-κB-luciferase was measured using a commercially available luciferase assay (Promega, Madison, Wis.). Briefly, cells were spun at 1,000 rpm for 5 min, washed with PBS, and lysed using reporter lysis 5× buffer (Promega, catalog no. E397A). Samples were vortexed and spun at 12,000×g for 2 min. The supernatant was plated, and luminescence was measured using a Synergy H1 plate reader (BioTek, Winooski, Vt.) and normalized to […].

[2] = system: PEP model in mice; assay: Intra-ductal RC infusion PEP model in mice: histological severity, serum amylase; format: in vivo, mouse
Source text: The procedure for retrograde infusion into the CBD and pancreatic duct has been described before^14. Briefly, Swiss Webster mice were anesthetized with isoflurane. A midline incision was made to reveal the abdominal cavity. The duodenum was flipped to reveal its distal side and held in place by ligatures. […] needle was inserted through the anti-mesenteric aspect of the duodenum to cannulate the CBD. A small bull dog clamp was applied to the distal CBD (near the duodenum) to prevent back flow of the infusate into the duodenal lumen and to hold the cannula in place. A larger bull dog clamp was applied to the proximal CBD (near the liver) to prevent infusion into the liver and thus to direct flow to the pancreatic duct. Total volumes of 50-100 μl of iohexol, iopamidol, or normal saline (NS) were infused at 10-20 μl per min for 5 min using a P33 perfusion pump (Harvard Apparatus, Holliston, Mass.). Upon completion of the infusion, the bull dog clamps were released. The exterior abdominal wound was closed using 7 mm wound clips, and a single injection of buprenorphine (0.075 mg/kg) was given immediately after the surgery. Mice recovered on a heating pad for 30 min after the procedure. They were given free access to food and water after the surgery. The pancreas, duodenum, and spleen were fixed at room temperature for 24 hr in 4% paraformaldehyde. Paraffin-embedded sections were stained with hematoxylin an eosin (HE) and graded using a 20× objective over 10 separate fields in a blinded fashion. Pancreas tissue was graded for edema, inflammatory infiltrate, and necrosis as described by Wildi et al.^67. Whole blood samples were centrifuged at 1500×g for 5 min at 4° C. Serum amylase was measured using a Phadebas kit (Amersham Pharmacia, Rochester N.Y.) as previously described^68.

[3] = system: calcineurin; assay: NFAT-luciferase activity assay in AR42J cells; format: cell-based; conditions: for effect on RC (6%)-induced NFAT-luciferase activity: pretreatment, FK506 24 μM, CsA 16 μM, U73122 5 μM, 2-APB 100 μM, BAPTA 64 μM
Protocol: (§1) Acinar cells were infected with Ad-NFAT-luciferase following a previously described procedure^10, 15, 16. The construct includes a luciferase gene placed downstream of an IL-4 promoter which contains nine tandem NFAT binding sites^10. Acinar cells were incubated with the NFAT-driven luciferase adenovirus for 1.5 hr prior to stimulation. All of the stated inhibitors were added for 30 min prior to stimulation with RC. NFAT-luciferase was measured using the luciferase assay system. Briefly, cells were spun at 1,000 rpm for 5 min, washed with PBS, and lysed using reporter lysis 5× buffer (Promega #E397A, Madison, Wis.). Samples were vortexed and spun at 12,000 g for 2 min. Supernatant was plated, and luminescence was measured using a Synergy H1 plate reader (BioTek, Winooski, Vt.) and normalized to total protein.

[4] = high-affinity Ca2+-sensing dye; cited from earlier work
[5] = system: primary acinar cells; assay: Cell necrosis assay (propidium iodide uptake) in primary acinar cells; format: cell-based, mouse; conditions: for effect on RC (12%)-induced acinar cell injury (PI uptake): 6 hr incubation, U73122 5 μM, 2-APB 100 μM, BAPTA 64 μM, IKK-2 20 μM, FK506 24 μM, CsA 16 μM
Protocol: Acinar cells were incubated in a 48-well plate with 50 μg/ml of propidium iodide (PI) for 30 min prior to addition of RC. Fluorescence was measured at 536 nm excitation and 617 nm emission wavelengths over time a time course of up to 6 hr. Fluorescence was measured after cell lysis with 0.5% Triton-X 100 was used to normalize the results relative to total DNA.

[6] = system: pancreatic NF-κB; assay: Imaging pancreatic NF-κB bioluminescence in vivo; set-up: species or system mouse; conditions: 4 hr after surgery, region of the pancreas
Protocol: An AAV6-NF-κB-luciferase reporter was constructed, expanded in HEK293 cells, and purified as previously described^18-20, 39. A volume of 100 μl of virus (10^12 GCP/ml) was infused into the pancreaticobiliary duct at a rate of 10 μl/min using the same technique of RC infusion described above and recently published^21, 39. After a 5-week recovery from the surgery, mice underwent PEP induction with or without FK506 treatment. At varying time points after the surgery, ranging from 2 to 36 hr, bioluminescence signals were obtained by first giving a subcutaneous injection of luciferin (150 μg/g body weight) in the scruff of the neck 15 min before the start of imaging. The mice were briefly anesthetized with isoflurane and placed in the supine position in a bioluminescent imaging chamber (IVIS spectrum imager; Perkin Elmer, Waltham, Mass.) for 3-10 min. Average pixel intensity was measured from a pancreatic region of interest (in the upper abdomen). Raw time points from each mouse were normalized to its individual baseline intensity at time zero.

[7] = system: pancreatic acinar cells; assay: ATP level measurements in acinar cells; format: cell-based, mouse; conditions: RC, concentration dependent
Protocol: Following isolation, pancreatic acinar cells were cultured in DMEM/F12 Medium (0.5 ml/well of a 48-well plate) at 37° C. water bath and treated with RC±FK506. Cells were collected at indicated time points and lysed in 100 lysis buffer (100 mM Tris pH 7.75, 4 mM EDTA). ATP levels were measured from 20 μl aliquots of acinar cell lysates using the ENLITEN luciferase/luciferin reagent (Promega catalog no. FF2021).

[8] = system: mouse pancreatic acinar cells; assay: Ca2+ signals (Fluo-4AM) in mouse pancreatic acinar cells; format: cell-based; conditions: 25% and 33% RC; peak-plateau Ca2+ waves
Protocol: (§2) Acinar cells were loaded at room temperature with the high-affinity Ca^2+-sensing dye Fluo-4AM (Kd=300 nM; Invitrogen). Acinar cells were plated on acid-washed glass coverslips and then mounted on a perifusion chamber. Thereupon, they were stimulated at room temperature with varying concentrations of RC (17-50%) diluted in HEPES buffer. Carbachol (1 mM) was given at the end of each experiment to confirm that the cells were intact and could mobilize intracellular Ca^2+ stores. A Zeiss LSM710 laser scanning confocal microscope was used with a […], 1.4 numerical aperture objective. The dye was excited at 488 nm wavelength, and emission signals of >515 nm were collected every 2 sec. Fluorescence from individual acinar cells was recorded. Analysis of recordings was performed using ImageJ software (NIH, Bethesda, Md.), and mean fluorescence over time in each region was graphed.
Groups of pancreatic acinar cells were isolated as previously described 26, 69 with minor modifications. Briefly, the pancreas was removed, and then minced for 5 min in buffer containing 20 mM HEPES (pH 7.4), 95 mM NaCl, 4.7 mM KCl, 0.6 mM MgCl2, 1.3 mM CaCl2=, 10 mM glucose, and 2 mM glutamine, plus 1% BSA, 1×MEM nonessential amino acids (GIBCO/BRL), 200 units/ml type-4 collagenase (Worthington, Freehold, N.J.), and 1 mg/ml soybean trypsin inhibitor. The tissue was incubated for 30 min at 37° C. with shaking at 90 rpm. […]

[9] = system: AR42J cells; assay: Ca2+ signals (Fluo-4AM) in AR42J cells; format: cell-based; conditions: U73122 5 μM, 2-APB 100 μM
Protocol: FIG. 7A-7H. […] (A) Summation of whole cell tracings from AR42J cells loaded with Fluo-4AM and perifused with RC (iohexol; 10-25%). (B, D) Quantification of amplitude and area under the curve. (C) RC (25%)-induced acinar cell Ca^2+ signals were prevented by the PLC inhibitor U73122 (5 μM) and the IP3R inhibitor 2-APB (100 μM). (n=20-30 cells per condition). *, # P<0.05 relative to 10% RC or RC alone, respectively. AR42J cells were infected with Ad-NFAT-luciferase and stimulated with RC at (E) increasing concentrations. […] (n=3). *, #, P<0.05, relative to the control or RC alone, respectively.
as §2, with “The dye was excited at 488 nm wavelength, and emission signals of >515 nm were collected every 2 sec.” left out

[10] = system: calcineurin; assay: NFAT-luciferase activity assay in mouse primary acinar cells; format: cell-based
Protocol: as §1

[11] = system: calcineurin; assay: NFAT-luciferase activity assay in human acinar cells; format: cell-based
Protocol: as §1

[12] = varying concentrations of iopamidol

SMILES: OC[C@@H](O)[C@@H](O)[C@H](O)[C@H](O)CO [mannitol]
- NF-κB increase at equimolar concentrations ([1]; osmolality control, equimolar to RC): failed to cause an increase

- induction of pancreatitis ([2]; intra-ductal infusion, 24 hr): induces pancreatitis
SMILES: C[C@H](O)C(=O)Nc1c(I)c(C(=O)NC(CO)CO)c(I)c(C(=O)NC(CO)CO)c1I [iopamidol]
- NFAT activation [3, 12]: concentration-dependent
- NF-κB activation [1, 12]: concentration-dependent

SMILES: CC(=O)OCOC(=O)CN(CC(=O)OCOC(C)=O)c1ccc(C)cc1OCCOc1cc(-c2c3cc(F)c(=O)cc-3oc3cc(OCOC(C)=O)c(F)cc23)ccc1N(CC(=O)OCOC(C)=O)CC(=O)OCOC(C)=O [Fluo-4AM]
- Kd [4]: 300 nM

- severity of pancreatitis at pH 6 compared to pH 7 ([2]; RC buffered with 10 mM HEPES, pH clamped at 6): no increased severity
- increase in histological severity above the intra-ductal NS sham control ([2]; intra-ductal RC, doubled rate and volume, 24 hr after procedure): 59%
- serum amylase increase ([2]; intra-ductal RC, 6 hr post-procedure): at least 50%
- ATP levels [7]: depletion
SMILES: CC(=O)N(CC(O)CO)c1c(I)c(C(=O)NCC(O)CO)c(I)c(C(=O)NCC(O)CO)c1I (stereo not drawn) [RC, iohexol]
- PI uptake ([5]; RC exposure for 6 hr): concentration-dependent increase
- peak in NF-κB luciferase compared to NS sham [6]: 13 fold
- Ca2+ signal amplitude above baseline [8]: 400%
- increase in NF-κB luciferase above baseline ([1]; 25% RC for 10 min, followed by washout): 5 fold
- increase in NF-κB luciferase above baseline ([1]; 25% RC for 60 min, P<0.05): 58 fold
- increase in NF-κB luciferase above baseline ([1]; 25% RC for 90 min, P<0.05): 59 fold
- increase in NF-κB luciferase above baseline ([1]; 25% RC for 120 min, P<0.05): 112 fold
- rise in NF-κB ([1]; at 350 mOsm/L): 300 fold

SMILES: COc1ccc2c(c1)c(CC(=O)O)c(C)n2C(=O)c1ccc(Cl)cc1 [indomethacin]
- effect of FK506 compared with therapeutic indomethacin on RC-induced pancreatitis ([2]; FK506 1 mg/kg, indomethacin 7 mg/kg IP after RC infusion): as robust

SMILES: CCCCCCCCCCC[C@@H](C[C@@H]1OC(=O)[C@H]1CCCCCC)OC(=O)[C@H](CC(C)C)NC=O [Orlistat]
- effect of pretreatment on RC-induced NF-κB activation ([1]; NAC 2-12 mM, Orlistat 50-100 μM, RC 16%): did not significantly reduce

SMILES: COc1ccc2c(c1)CC[C@@H]1[C@@H]2CC[C@]2(C)[C@@H](NCCCCCCN3C(=O)C=CC3=O)CC[C@@H]12 [U73122]
- effect on RC (12%)-induced acinar cell injury (PI uptake) [5]: prevented
- effect on RC (6%)-induced NFAT-luciferase activity [3]: prevented
- effect on RC (25%)-induced acinar cell Ca2+ signals [9]: prevented
- effect on RC-induced NF-κB luciferase levels [1]: reduced

SMILES: NCCOB(c1ccccc1)c1ccccc1 [2-APB]
- effect on RC (12%)-induced acinar cell injury (PI uptake) [5]: prevented
- effect on RC (6%)-induced NFAT-luciferase activity [3]: prevented
- effect on RC (25%)-induced acinar cell Ca2+ signals [9]: prevented
- effect on RC-induced NF-κB luciferase levels [1]: reduced
- reduction of RC-induced luciferase rise ([10]; 2-APB 100 μM, P<0.05): 47%

SMILES: CC(=O)OCOC(=O)CN(CC(=O)OCOC(C)=O)c1ccccc1OCCOc1ccccc1N(CC(=O)OCOC(C)=O)CC(=O)OCOC(C)=O [BAPTA-AM]
- effect on RC (12%)-induced acinar cell injury (PI uptake) [5]: prevented
- effect on RC (6%)-induced NFAT-luciferase activity [3]: prevented
- effect on RC (25%)-induced NFAT-luciferase activity [11]: prevented
- effect on RC-induced NF-κB luciferase levels [1]: reduced
- effect on RC-induced rise in NFAT-luciferase ([10]; 30 min pre-treatment, FK506 24 μM, CsA 16 μM, BAPTA-AM 64 μM): completely reduced
